From patent US20110294698A1, “PROCESS FOR IDENTIFYING DRUGS FOR TREATING GASTROESOPHAGEAL REFLUX” (Temple University of the Commonwealth System of Higher …, priority 2008, published 2011)
“Also recorded” adds a separate entry of the source. Like-named read-outs stand apart in the source and are kept apart here.

Assays:
human sling fibers [1] = assay: nicotine or choline induced relaxation of bethanechol pre-contracted muscle strips; format: cell-based
human clasp fibers [2] = assay: carbachol induced contraction and relaxation of muscle strips, with potential inhibitors of relaxation; format: cell-based; conditions: for inhibition of carbachol induced relaxation: mecamylamine 10 μM, hexamethonium 100 μM, L-NAME 50 μM
human LEC fibers [3] = assay: as above; format: cell-based; conditions: for inhibition of carbachol induced relaxation: mecamylamine 10 μM, hexamethonium 100 μM, L-NAME 50 μM
pig clasp fibers = format: cell-based
[4] = tested on: gastroesophageal junction high-pressure zone; conditions: in vivo; cited from earlier work
[5] = tested on: gastroesophageal junction high-pressure zone; parameters: species or system human; conditions: in vivo, iv
human LEC fibers [6] = assay: bethanechol induced contraction of muscle strips, with or without antagonist (Schild analysis); format: cell-based
human clasp fibers [7] = assay: as above; format: cell-based
human MEL fibers [8] = assay: as above; format: cell-based
M2 receptor = target: T1, M2 receptor (Homo sapiens, UniProt P08172); conditions: published value; cited from earlier work
T1 sequence (P08172 1-466): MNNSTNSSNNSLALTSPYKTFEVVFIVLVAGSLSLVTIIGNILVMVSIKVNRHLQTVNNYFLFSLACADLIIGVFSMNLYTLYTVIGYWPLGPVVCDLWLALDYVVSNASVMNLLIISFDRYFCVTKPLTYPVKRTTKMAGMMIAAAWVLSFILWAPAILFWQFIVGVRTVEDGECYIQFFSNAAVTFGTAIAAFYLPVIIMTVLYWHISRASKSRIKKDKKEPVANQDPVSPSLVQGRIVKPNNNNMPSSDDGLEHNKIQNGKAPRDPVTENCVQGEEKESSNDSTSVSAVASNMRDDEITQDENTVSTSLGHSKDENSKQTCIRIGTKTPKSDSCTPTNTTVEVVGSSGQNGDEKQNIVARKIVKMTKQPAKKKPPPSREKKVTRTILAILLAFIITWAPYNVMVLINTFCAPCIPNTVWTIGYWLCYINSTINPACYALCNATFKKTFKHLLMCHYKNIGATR

human MEC fibers [9] = assay: bethanechol induced contraction of muscle strips, with or without antagonist (Schild analysis); format: cell-based
M3 receptor = M3 receptor (Homo sapiens, UniProt P20309); conditions: cited from earlier work
human sling fibers [10] = assay: bethanechol induced contraction of muscle strips, with or without antagonist (Schild analysis); format: cell-based
human MEC fibers [11] = assay: carbachol cumulative concentration response of muscle strips; format: cell-based
Excerpt: (§1) Beginning at the cardiac notch, the sling fiber complex was separated from the underlying submucosa by sharp dissection and this tissue plane was followed completely around the lesser curvature thus separating the clasp fibers from underlying submucosa. The clasp fiber complex was removed from the sling fiber complex by sharp dissection and cut into 10-12 smooth muscle strips approximately 3×3×8 mm with the long axis parallel to the direction of the muscle fibers. Similar muscle strips were cut from the middle of the sling fiber complex such that these strips were derived from the sling fibers in the cardiac notch. These smooth muscle strips were suspended in 10 ml muscle baths between platinum electrodes in Tyrode's solution continuously bubbled with 95% O2/5% CO2 and maintained at 37° C. The muscle strips were stretched to approximately 150% of their slack length which produced approximately 1 gram of basal tension and were then allowed to accommodate to the muscle bath for at least 60 minutes prior to investigation of contractile response.
(§2) Representative traces of the contractile response to 120 mM KCl in isotonic Tyrode's solution followed by a wash and 60 minute re-equilibration period then a cumulative concentration response curve to the selective muscarinic receptor agonist bethanechol (left) or the muscarinic and nicotinic agonist carbachol (right) is shown in FIG. 11. […]

human MEL fibers [12] = assay: as above; format: cell-based
Excerpt: as §1, §2

human sling fibers [13] = assay: carbachol induced contraction and relaxation of muscle strips, with potential inhibitors of relaxation; format: cell-based; conditions: for inhibition of carbachol induced relaxation: mecamylamine 10 μM, hexamethonium 100 μM
human clasp fibers [14] = assay: nicotine or choline induced relaxation of bethanechol pre-contracted muscle strips; format: cell-based
human LEC fibers [15] = assay: as above; format: cell-based
[16] = inhibitor 30 min, then carbachol rechallenge, others as in Table 6
[17] = mean ± SEM, read-out: BETH pEC50 (bethanechol potency) (converted)
[18] = Barrett's esophagitis donors vs no GERD history
[19] = cumulative concentration response

M3 receptor, sequence (P20309 whole entry): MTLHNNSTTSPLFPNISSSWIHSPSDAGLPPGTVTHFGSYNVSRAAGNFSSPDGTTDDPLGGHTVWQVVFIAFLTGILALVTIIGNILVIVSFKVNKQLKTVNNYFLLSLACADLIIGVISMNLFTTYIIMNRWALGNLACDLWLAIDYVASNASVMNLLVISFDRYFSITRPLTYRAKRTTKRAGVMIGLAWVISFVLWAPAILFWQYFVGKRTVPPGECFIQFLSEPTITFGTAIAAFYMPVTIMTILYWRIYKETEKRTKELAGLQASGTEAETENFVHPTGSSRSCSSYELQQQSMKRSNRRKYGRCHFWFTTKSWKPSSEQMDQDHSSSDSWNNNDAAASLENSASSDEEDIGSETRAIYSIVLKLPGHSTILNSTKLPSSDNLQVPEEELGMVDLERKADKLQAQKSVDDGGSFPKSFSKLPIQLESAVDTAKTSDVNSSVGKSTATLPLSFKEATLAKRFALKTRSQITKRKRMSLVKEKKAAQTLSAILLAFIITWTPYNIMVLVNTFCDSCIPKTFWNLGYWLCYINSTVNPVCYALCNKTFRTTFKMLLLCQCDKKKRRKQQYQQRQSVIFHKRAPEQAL

SMILES: COC(=O)[C@@H](N)CCCNC(=N)N[N+](=O)[O-] [L-NAME]
- inhibition of nicotine induced relaxation (human sling fibers [1]): inhibited
- inhibition of carbachol induced relaxation (human clasp fibers [2]; […], others as in Table 6): inhibited
- inhibition of carbachol induced relaxation (human LEC fibers [3]; […]): inhibited

SMILES: CC[N+](CC)(CC)CCOc1ccc(/C=C/c2ccccc2)cc1 [MG624]
- inhibition of carbachol induced relaxation (human clasp fibers [2]; [16]): blocked

SMILES: CCCCCCCCCC[n+]1cccc([C@@H]2CCCN2C)c1.[I-] [NDNI]
- inhibition of carbachol induced relaxation (human clasp fibers [2]; […], others as in Table 6): blocked

SMILES: CC(=O)OCC[N+](C)(C)C [acetylcholine]
- concentration above which abrupt relaxations were produced (pig clasp fibers; acetylcholine with physostigmine to block cholinesterase): higher than 30 uM

SMILES: CN1[C@@H]2CC[C@H]1C[C@@H](OC(=O)C(CO)c1ccccc1)C2 (stereo partly drawn) [atropine]
- effect on the resting sphincteric pressure [4]: dose-dependent partial suppression
- effect on the pressure profile generated by placement of the plications [5]: abolished

SMILES: CC(C[N+](C)(C)C)OC(N)=O (stereo not drawn) [bethanechol]
- BETH MAX (maximal tension) (human LEC fibers [6]; mean ± SEM): 0.92 ± 0.09 (n = 29)
- EC50 (human LEC fibers [6]; [17]): 6.46 µM
- BETH MAX (maximal tension) (human clasp fibers [7]; mean ± SEM): 1.20 ± 0.17 (n = 14) b d
- EC50 (human clasp fibers [7]; [17]): 1.58 µM
- BETH MAX (maximal tension) (human MEL fibers [8]; mean ± SEM): 1.37 ± 0.21 (n = 10)
- EC50 (human MEL fibers [8]; [17]): 15.8 µM
- KA (agonist dissociation constant) for M2 (M2 receptor): 170 µM
- BETH MAX (maximal tension) (human MEC fibers [9]; mean ± SEM): 0.79 ± 0.07 (n = 24) e
- EC50 (human MEC fibers [9]; [17]): 45.7 µM
- KA (agonist dissociation constant) for M3 (M3 receptor; published value): 110 µM
- BETH MAX (maximal tension) (human sling fibers [10]; mean ± SEM): 2.18 ± 0.24 (n = 37) c d e
- EC50 (human sling fibers [10]; [17]): 10.5 µM

SMILES: C[N+](C)(C)CCOC(N)=O [carbachol]
- maximal contractile response to carbachol, definite GERD (human clasp fibers [2]; [18]): decreased
- carbachol induced relaxations, probable and definite GERD (human clasp fibers [2]; carbachol higher than 100 μM): decreased
- concentration above which abrupt relaxations were produced (human clasp fibers [2]; increasing carbachol concentrations (Example 9)): higher than 30 uM
- relaxation response to high carbachol concentration as a percentage of the maximal contractile response (human clasp fibers [2]; mean±sem): 131±6%
- carbachol-induced relaxations with high concentrations of carbachol, donors with GERD compared to non-GERD controls (human clasp fibers [2]; p<0.05): significantly lower
- maximal carbachol induced contraction, donors with GERD compared to non-GERD donors (human clasp fibers [2]; p<0.05): significantly lower
- maximal contractile response to carbachol, definite GERD (human LEC fibers [3]; [18]): decreased
- carbachol induced relaxations, probable and definite GERD (human LEC fibers [3]; carbachol higher than 100 μM): higher
- carbachol concentration at which relaxation response is observed (human LEC fibers [3]; [19]): ≥ 300 µM
- relaxation response to high carbachol concentration as a percentage of the maximal contractile response (human LEC fibers [3]; mean±sem): 54±9%
- abrupt relaxation response to high carbachol concentrations (human MEC fibers [11]): not observed
- abrupt relaxation response to high carbachol concentrations (human MEL fibers [12]): not observed
- carbachol induced relaxation, GERD compared to non-GERD controls (human sling fibers [13]): no difference
- carbachol induced relaxations, definite GERD (human sling fibers [13]; carbachol higher than 100 μM): greater
- carbachol concentration at which relaxation response is observed (human sling fibers [13]; [19]): ≥ 300 µM
- relaxation response to high carbachol concentration as a percentage of the maximal contractile response (human sling fibers [13]; mean±sem): 29±4%
- maximal carbachol induced contraction, donors with GERD compared to donors without GERD (human sling fibers [13]; p<0.05): greater
- contractility to carbachol, definite and probable GERD (human sling fibers [13]; vs no GERD history): increased

SMILES: C[N+](C)(C)CCCCCCCCCC[N+](C)(C)C [decamethonium]
- inhibition of carbachol induced relaxation (human clasp fibers [2]; […], others as in Table 6): inhibited
- inhibition of carbachol induced relaxation (human sling fibers [13]; […], others as in Table 6): inhibit

SMILES: C[N+](C)(C)CCCCCC[N+](C)(C)C [hexamethonium]
- inhibition of carbachol induced relaxation (human LEC fibers [3]; […]): did not
- inhibition of carbachol induced relaxation (human sling fibers [13]; […], others as in Table 6): did not
- inhibition of carbachol induced relaxation (human sling fibers [13]; […], others as in Table 6, listed as HEX): inhibit

SMILES: CNC1(C)C2CCC(C2)C1(C)C (stereo not drawn) [mecamylamine]
- inhibition of nicotine induced relaxation (human sling fibers [1]; human sling fibers, 30 μM bethanechol then 1 mM nicotine, MLA 10 nM, MECA 10 μM): significantly inhibited
- inhibition of carbachol induced relaxation (human clasp fibers [2]; [16]): inhibited; also recorded: blocked; also recorded: only partially effective
- inhibition of nicotine induced relaxation (human clasp fibers [14]; human clasp fibers, 30 μM bethanechol then 1 mM nicotine, MLA 10 nM, MECA 10 μM): significantly inhibited
- inhibition of nicotine induced relaxation (human LEC fibers [15]; human LEC fibers, 30 μM bethanechol then 1 mM nicotine, MLA 10 nM, MECA 10 μM): significantly inhibited
- inhibition of carbachol induced relaxation (human LEC fibers [3]; inhibitor 30 min, then carbachol rechallenge): inhibited
- inhibition of carbachol induced relaxation (human sling fibers [13]; [16]): inhibited
- inhibition of carbachol induced relaxation (human sling fibers [13]; inhibitor 30 min, then carbachol rechallenge, others as in Table 6, listed as MEC): inhibit

SMILES: COc1ccccc1CNCCCCCCNCCCCCCCCNCCCCCCNCc1ccccc1OC [methoctramine]
- potency (pA2) to inhibit bethanechol induced contraction (human LEC fibers [6]): 6.2±0.2
- potency (pA2) to inhibit bethanechol induced contraction (human clasp fibers [7]): 6.3±0.2
- potency (pA2) to inhibit bethanechol induced contraction (human MEL fibers [8]): 5.6±0.3
- potency (pA2) to inhibit bethanechol induced contraction (human MEC fibers [9]): 5.7±0.2
- pKB M3 (M3 receptor; published affinity value): 6.6
- potency (pA2) to inhibit bethanechol induced contraction (human sling fibers [10]): 6.8±0.2

SMILES: CCN1C[C@]2(COC(=O)c3ccccc3N3C(=O)C[C@H](C)C3=O)CC[C@H](OC)[C@@]34[C@@H]5C[C@H]6[C@H](OC)[C@@H]5[C@](O)(C[C@@H]6OC)[C@@](O)([C@@H](OC)[C@H]23)[C@@H]14 [methyllycaconitine]
- inhibition of nicotine induced relaxation (human sling fibers [1]): no inhibitory effect
- inhibition of carbachol induced relaxation (human clasp fibers [2]; […], others as in Table 6): did not
- inhibition of carbachol induced relaxation (human clasp fibers [2]; […], others as in Table 6, listed as methyllycaconotine): ineffective
- inhibition of nicotine induced relaxation (human clasp fibers [14]): no inhibitory effect
- inhibition of nicotine induced relaxation (human LEC fibers [15]): no inhibitory effect

SMILES: CN1CCCC1c1cccnc1 (stereo not drawn) [nicotine]
- nicotine induced relaxation of bethanechol pre-contracted fibers (human sling fibers [1]; human sling fibers, 30 μM bethanechol, 100 μM nicotine): relax; also recorded: induces a relaxation
- nicotine induced relaxation of bethanechol pre-contracted fibers (human clasp fibers [14]; human clasp fibers): relax
- nicotine induced relaxation of bethanechol pre-contracted fibers (human LEC fibers [15]; human LEC fibers): relax

SMILES: CC(=O)O[C@H]1C[C@@H]2CC[C@@H]3[C@H](CC[C@@]4(C)[C@H]3C[C@H]([N+]3(C)CCCCC3)[C@@H]4OC(C)=O)[C@@]2(C)C[C@@H]1[N+]1(C)CCCCC1 [pancuronium]
- inhibition of cholinergic agonist induced relaxation (pig clasp fibers; […], 1E−5 molar): inhibited

SMILES: CC(C)NCC(O)COc1cccc2ccccc12 (stereo not drawn) [propranolol]
- inhibition of nicotine induced relaxation (human sling fibers [1]; human sling fibers, 30 μM bethanechol then 100 μM nicotine, inhibitor 30 min): inhibited

SMILES: NC1=N[C@H](O)[C@H]2[C@H]3O[C@]4(O)O[C@@H]([C@@H](O)[C@@]2(N1)[C@@H]4O)[C@]3(O)CO [tetrodotoxin]
- inhibition of nicotine induced relaxation (human sling fibers [1]): reduced the relaxation but not completely

SMILES: COc1cc2c3cc1Oc1cc(ccc1O)C[C@@H]1c4c(cc(OC)c(O)c4Oc4ccc(cc4)C[C@@H]3N(C)CC2)CC[N+]1(C)C [tubocurarine]
- inhibition of carbachol induced relaxation (human clasp fibers [2]; […], others as in Table 6): inhibited
- inhibition of carbachol induced relaxation (human sling fibers [13]; […], others as in Table 6): inhibit
